Values of other authors in patent publication US20080233219A1, “Composition for diet comprising plant essential oil as active ingredient, sheet type composition for diet comprising thereof, percutaneous pharmaceutical agent for diet comprising thereof, and method for producing thereof” (NATURE TECHNOLOGY INC., priority 2005, published 2008).

Legend:
[1] = in vivo
[2] = in three month

In the case of `OC1(c2ccc(Cl)cc2)c2ccccc2C2=NCCN21` (centres unmarked) [Mazindol], the side effects [1] is given as “not serious ones except cotton mouth, astriction, indigestible feeling” and the “gradual weight loss, average” value [2] is given as “about 4.5 kg”.
